Measurements published in US20100167397A1, “ENDOCRINE CELL LINES AND METHOD OF USING THE SAME” (KYOWA HAKKO KOGYO CO., LTD., priority 2002, published 2010).
No end group written: not given here.

How the values were obtained:
G10d = biological target: T1, G10d (Homo sapiens, UniProt O15218); assay: Screening of ligands or agonists of G10d (pAGal9-G10d in GBCRC6, Renilla luciferase); type: cell-based; settings: 6 hours
T1 construct: expressed in transfected cells; host or cells: GBCRC6 (Namalwa KJM-1 derived)
Description: According to the method mentioned in (1) of Example 20, the G10d gene was prepared by PCR and the gene was inserted in an expression vector pAGal9-d to construct pAGal9-G10d which is an inducible expression plasmid of G10d. With regard to a template, single-stranded DNAs derived from human spleen were used. With regard to the G10d gene-specific primers, synthetic DNAs having sequences mentioned in SEQ ID NOS: 185 and 186 were used. To the above primers, a HindIII site and a NotI site were introduced, respectively.
A PCR-amplified fragment was cleaved with HindIII and NotI to prepare a HindIII-NotI fragment. A plasmid pAGal9-d was cleaved with HindIII and NotI to prepare a HindIII-NotI fragment.
(§1) According to the method mentioned in (1) of Example 21, pAGal9-G10d was transfected to GBCRC6 to prepare stable transformants. […] It is possible to screen an antagonist for G10d using α-MSH or ACTH as an agonist.

[1] = system: GBCRC6 to which control vector (pAGal9-d) was transfected; assay: Control: GBCRC6 to which control vector (pAGal9-d) was transfected; type: cell-based, human
Source text: as §1

[2] = biological target: T2, melanocortin receptor type 1 (MC1R) (Homo sapiens, UniProt Q01726); assay: MC1R reporter assay in GBCR2 (pAGal9-MC1R), Renilla reniformis luciferase; type: cell-based; settings: GBCR2 with pAGal9-MC1R, 17β-estradiol 10 nmol/L 24 hours; various concentrations, 6 hours
T2 construct: expressed in transfected cells; host or cells: GBCR2 (Namalwa KJM-1 derived)
Description: One of the plasmids was named pAGal9-MC1R. The nucleotide sequence was determined by the method mentioned in the above (2).
According to the method mentioned in (1) of Example 21, pAGal9-MC1R was transfected to GBCR2 to prepare stable transformants.

CRE reporter in KJMGER8 = assay: Constitutive activity of GPCR, Method 5 (KJMGER8 co-transfected with pACREpluc, firefly luciferase); type: cell-based, human; settings: 17β-estradiol 10 nmol/L, 1 day, activity with divided by activity without, control plasmid about 1
Description: After the cultivation, firefly luciferase activity was measured. […] It is judged that the higher the induction ratio of the cells to which a GPCR expression plasmid was transfected, the stronger the constitutive activity of the GPCR.

GPR41 = biological target: T3, GPR41 (Homo sapiens, UniProt O14843); assay: Screening of ligands or agonists of GPR41 (pAGal9-GPR41 in GBCRC6, Renilla luciferase); type: cell-based; settings: for induction ratio of the reporters (agonist for GPR41): 100 μmol/L, 6 hours
T3 construct: expressed in transfected cells; host or cells: GBCRC6 (Namalwa KJM-1 derived)
T3 sequence (O14843 1-346): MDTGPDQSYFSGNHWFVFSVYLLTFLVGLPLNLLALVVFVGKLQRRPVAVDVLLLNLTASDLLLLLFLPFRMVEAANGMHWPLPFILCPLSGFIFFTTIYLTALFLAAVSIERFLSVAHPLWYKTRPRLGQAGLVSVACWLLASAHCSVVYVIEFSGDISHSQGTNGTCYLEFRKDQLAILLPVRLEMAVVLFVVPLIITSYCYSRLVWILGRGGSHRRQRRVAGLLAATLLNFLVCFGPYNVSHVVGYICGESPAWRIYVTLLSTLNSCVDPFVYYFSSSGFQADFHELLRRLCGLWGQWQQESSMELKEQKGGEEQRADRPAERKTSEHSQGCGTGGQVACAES
Description: With regard to a template, human chromosomal DNA (100 ng; manufactured by Clontech) was used. With regard to the GPR41 gene-specific primers, synthetic DNAs having sequences mentioned in SEQ ID NOS: 183 and 184, respectively, were used. To the above primers, a HindIII site and a NotI site were introduced, respectively. A PCR-amplified fragment was cleaved with HindIII and NotI to prepare a HindIII-NotI fragment. A plasmid […] was cleaved with HindIII and NotI to prepare a HindIII-NotI fragment. The HindIII-NotI fragment derived from PCR fragment and the HindIII-NotI fragment derived from […] were ligated to construct pAGal9-GPR41 which was an inducible expression plasmid of GPR41.

other GPCRs = assay: Specificity: assay cells to which other GPCRs were transfected; type: cell-based
GPR43 = biological target: T4, GPR43 (Homo sapiens, UniProt O15552); assay: Screening ligands or agonists of GPR43 (pAGal9-GPR43 in GBCRC6, Renilla luciferase); type: cell-based; settings: 100 μmol/L; 6 hours
T4 construct: expressed in transfected cells; host or cells: GBCRC6 (Namalwa KJM-1 derived, co-expressing Gαs-q and Gαs-i)
T4 sequence (O15552 1-330): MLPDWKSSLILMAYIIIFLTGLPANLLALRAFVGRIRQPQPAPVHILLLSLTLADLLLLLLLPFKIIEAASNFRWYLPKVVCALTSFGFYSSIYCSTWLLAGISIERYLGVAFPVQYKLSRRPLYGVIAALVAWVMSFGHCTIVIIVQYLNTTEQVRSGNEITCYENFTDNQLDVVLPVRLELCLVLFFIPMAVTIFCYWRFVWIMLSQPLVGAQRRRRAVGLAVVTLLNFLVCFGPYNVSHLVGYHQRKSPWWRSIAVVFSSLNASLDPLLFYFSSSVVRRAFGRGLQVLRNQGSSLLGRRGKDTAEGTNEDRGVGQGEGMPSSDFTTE
Description: According to the method mentioned in (1) of Example 20, the GPR43 gene was prepared by PCR and the gene was inserted in an expression vector pAGal9-d to construct pAGal9-GPR43 which is an inducible expression plasmid of GPR43. With regard to a template, human chromosomal DNA (100 ng; manufactured by Clontech) was used. With regard to the GPR43 gene-specific primers, synthetic DNA having sequences mentioned in SEQ ID NOS: 181 and 182, respectively, were used. A HindIII site and a NotI site were introduced to the above primers, respectively.
PCR-amplified fragment was cleaved with HindIII and NotI to prepare a HindIII-NotI fragment. A plasmid pAGal9-d was cleaved with HindIII and NotI to prepare a HindIII-NotI fragment.
According to the method mentioned in (1) of Example 21, pAGal9-GPR43 was transfected to GBCRC6 to prepare stable transformants.

GPR12 = assay: Host clone selection: inducible expression of GPR12 (pAGal9-GPR12) by 17β-estradiol, CRE-luciferase readout; type: cell-based; settings: 24 hours; for rising rate of luciferase activity upon addition of 17β-estradiol: 10 nmol/L, firefly luciferase
Description: To the 8 clones was transfected pAGal9-GPR12 [a plasmid for inducible expression of GPR12 which is a constitutively activated G-protein coupled receptor: refer to Example 22 which will be mentioned later] by the above electroporation method using 4 μg to 6×10^6 cells to prepare transformants.
pAGal9-GPR12 was transfected to the 2 clones to prepare stable transformants.

gene expression via CRE = assay: CRE-luciferase reporter stimulation in Namalwa KJM-1 / KJMGER8 cells carrying pACREpluc or pACRERluc; type: cell-based, human
Description: A reporter plasmid pACREpluc was dissolved in a TE buffer so as to make 1 μg/μl and the plasmid was transfected to Namalwa KJM-1 cells by an electroporation method [Cytotechnology, 3, 133 (1990)] using 4 μg to 6×10^6 cells to give transformants.
The transformants were subcultured in RPMI 1640-ITPSG medium containing hygromycin B (300 μg/ml).
In order to confirm whether gene expression via CRE took place, the transformants were stimulated under the following condition using 5′-N-ethylcarboxamide adenosine (NECA: manufactured by Sigma) which is an agonist of type 2a adenosine receptor (A2a), forskolin (manufactured by Sigma) which is an activator for adenylate cyclase or A23187 (manufactured by Research Biochemicals International) which is a calcium ionophore.
Thus, the above stable transformants were dispensed in an amount of 1×10^5 cells per well of a 48-well plate, then NECA (final concentration 100 nmol/L), forskolin (final concentration 100 μmol/L) or A23187 (final concentration 10 μmol/L) was added and stimulation was conducted by incubating in a CO2 incubator for 5 hours.
Accordingly, when the cells are stimulated by any substance, it is believed to be preferred to measure the activity after 6 hours from the stimulation.
After the incubation, firefly luciferase activity in each well was measured using the method mentioned in (4) of Example 18. With regard to a device for the measurement, Micro Lumat LB96P (manufactured by Berthold) was used. Seventeen clones having high activity were selected.
The 17 clones were used, stimulation with NECA was applied by the same manner as in the above (2), comparison with the case where no stimulation with NECA was conducted and 8 clones where luciferase activity rose to an extent of 60-fold or more were selected. Such 8 clones were named GBC1 to GBC8 respectively.
After that, coelenterazine h (Molecular Probes) (final concentration 250 nmol/L) was added to measure the activity of Renilla reniformis luciferase. For the measurement of the activity, a Wallac 1420 ARVOsx Multilable Counter (manufactured by Wallac Berthold Japan) was used. Nine clones having high activity were selected. The 9 clones were named GBCR1 to GBCR9, respectively.
With regard to the 9 clones, stimulation with NECA was conducted and, as compared with the case no stimulation with NECA was done, 2 clones where the activity of Renilla reniformis luciferase increased to an extent of not less than 18-fold were selected. The 2 clones were named GBCR1 and GBCR2, respectively.

T2 sequence (Q01726 whole entry): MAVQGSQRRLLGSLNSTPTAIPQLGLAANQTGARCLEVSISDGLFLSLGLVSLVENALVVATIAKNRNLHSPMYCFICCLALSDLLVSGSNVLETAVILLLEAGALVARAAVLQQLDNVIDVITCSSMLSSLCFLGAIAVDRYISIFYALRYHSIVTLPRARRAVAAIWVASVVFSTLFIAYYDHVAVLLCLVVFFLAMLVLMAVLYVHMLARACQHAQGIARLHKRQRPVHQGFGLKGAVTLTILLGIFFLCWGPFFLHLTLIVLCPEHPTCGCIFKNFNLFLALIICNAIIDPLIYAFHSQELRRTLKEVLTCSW
T1 sequence (O15218 whole entry): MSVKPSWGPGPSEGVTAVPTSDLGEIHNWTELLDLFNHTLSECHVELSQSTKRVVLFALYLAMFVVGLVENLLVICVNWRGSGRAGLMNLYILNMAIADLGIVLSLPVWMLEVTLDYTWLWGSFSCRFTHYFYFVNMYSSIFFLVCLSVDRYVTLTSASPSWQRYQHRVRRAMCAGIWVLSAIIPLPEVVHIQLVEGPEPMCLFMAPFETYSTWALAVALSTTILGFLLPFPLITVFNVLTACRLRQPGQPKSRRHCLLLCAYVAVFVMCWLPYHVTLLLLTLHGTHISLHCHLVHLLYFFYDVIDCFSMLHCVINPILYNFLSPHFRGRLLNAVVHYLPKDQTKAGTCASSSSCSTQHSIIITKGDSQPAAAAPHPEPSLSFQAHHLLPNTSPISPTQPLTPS

α-MSH: α-melanocyte-stimulating hormone
induction ratio of the reporters (agonist for G10d) (G10d; 100 μmol/L of α-MSH): 10 fold
action on GBCRC6 to which control vector (pAGal9-d) was transfected [1]: did not act

human PAMP-12: peptide consisting of the 9th to 20th amino acid residues from N terminal of PAMP (FRKKWNKWALSR; ends and bridges not checked; UniProt P35318 30-41, looked up, fragment)
concentration at which MC1R reacts (Renilla luciferase reporter) [2]: very low concentration

GPR 26
Constitutive Activity (induction ratio) (CRE reporter in KJMGER8): 26-fold

O=C(O)C1CC1 [cyclopropanecarboxylic acid]
induction ratio of the reporters (agonist for GPR41) (GPR41): 22 fold
action on assay cells to which other GPCRs were transfected (other GPCRs): did not act

ACTH: adrenocorticotropic hormone (SYSMEHFRWGKPVGKKRRPVKVYPNGAEDESAEAFPLEF)
induction ratio of the reporters (agonist for G10d) (G10d; 100 nmol/L of ACTH): 11 fold
action on GBCRC6 to which control vector (pAGal9-d) was transfected [1]: did not act

CC(=O)O [acetate]
induction ratio of the reporter (agonist for GPR43) (GPR43): 9 fold

CCC(=O)O [propionic acid]
induction ratio of the reporter (agonist for GPR43) (GPR43): 5 fold
induction ratio of the reporters (agonist for GPR41) (GPR41): 21 fold

C[C@]12CC[C@@H]3c4ccc(O)cc4CC[C@H]3[C@@H]1CC[C@@H]2O [17β-estradiol]
rising rate of luciferase activity upon addition of 17β-estradiol (GPR12; GBC5 with pAGal9-GPR12): 56 fold
rising rate of luciferase activity upon addition of 17β-estradiol (GPR12; GBC6 with pAGal9-GPR12): 193 fold
rising rate of luciferase activity upon addition of 17β-estradiol (GPR12; GBC7 with pAGal9-GPR12): 364 fold
rising rate of Renilla reniformis luciferase activity when 17β-estradiol was added (GPR12; GBCR2 with pAGal9-GPR12): 364 fold

CCNC(=O)[C@H]1O[C@@H](n2cnc3c(N)ncnc32)[C@H](O)[C@@H]1O [NECA, 5′-N-ethylcarboxamide adenosine]
increase of Renilla reniformis luciferase activity versus no stimulation (gene expression via CRE; 2 clones GBCR1 and GBCR2 (KJMGER8 with integrated pACRERluc), NECA 100 nmol/L): not less than 18 fold
rise of firefly luciferase activity versus no stimulation (gene expression via CRE; 8 clones GBC1 to GBC8 (KJMGER8 with integrated pACREpluc), NECA stimulation): ≥ 60 fold
increase of firefly luciferase activity (gene expression via CRE; Namalwa KJM-1 with pACREpluc, NECA 100 nmol/L, 5 hours): about 7 fold
firefly luciferase activity after 24 hours (gene expression via CRE; Namalwa KJM-1 with pACREpluc, compared with highest activity at 6 hours): decreased to an extent of nearly one half
time after stimulation at which firefly luciferase activity was highest (gene expression via CRE; Namalwa KJM-1 with pACREpluc, measured after 6, 24, 48, 72 and 96 hours): 6 h

human PAMP: peptide comprising 20 amino acids excised from a precursor protein of adrenomedullin (ARLDVASEFRKKWNKWALSR; ends and bridges not checked; UniProt P35318 22-41, looked up)
concentration at which MC1R reacts (Renilla luciferase reporter) [2]: very low concentration

GPR 3
Constitutive Activity (induction ratio) (CRE reporter in KJMGER8): 6.5-fold

CC(=O)O [acetic acid]
induction ratio of the reporter (agonist for GPR43) (GPR43): 4 fold
agonist activity to GPR41 (GPR41): did not show an agonist activity
action on assay cells to which other GPCRs were transfected (other GPCRs): did not act
